The values below come from PubChem BioAssay (NCI).

Each structure is given as a SMILES string.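 Results reflect a 48-hour exposure of cells in 96-well plates to compound at five concentrations. TGI is the concentration that stops growth completely.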

Among the test systems are OVCAR-8 ovarian; SF-295 CNS; KM12 colon; UACC-62 melanoma; MDA-N; T-47D breast; SF-268 CNS; A549 NSCLC; OVCAR-4 ovarian; SNB-75 CNS; OVCAR-5 ovarian; RPMI-8226 leukemia; SF-539 CNS; SNB-19 CNS; EKVX NSCLC; MDA-MB-231 breast; SW-620 colon; NCI-H522 lung.
Assay in all cases: inhibition of tumour cell growth, NCI panel, 48 h

In the case of `N#CC(C#N)=Cc1ccc2c(c1)OC(Cl)O2` (stereo unspecified), the TGI was over 100 µM in the assay on OVCAR-8 ovarian; 37.4 µM in the assay with SF-295 CNS; 39.9 µM with KM12 colon; 59.3 µM with UACC-62 melanoma; 35.2 µM with MDA-N; over 100 µM in the assay on T-47D breast. Besides, the TGI is 66.4 µM in the assay on SF-268 CNS; over 100 µM in the assay with A549 NSCLC; over 100 µM with OVCAR-4 ovarian; 75.4 µM with SNB-75 CNS; 37.1 µM in the assay with OVCAR-5 ovarian; over 100 µM with RPMI-8226 leukemia. In addition, the TGI in the assay on SF-539 CNS amounted to 38.6 µM; in the assay with SNB-19 CNS, 66.4 µM; in the assay on EKVX NSCLC it was 79.5 µM.
On to `CN(C)CCNC(=O)c1cccc2c(NCC(=O)O)c3ccccc3nc12`, for which the TGI in the assay with OVCAR-8 ovarian was 38.5 µM; in the assay on SF-295 CNS, 29.8 µM; in the assay on KM12 colon, 60.7 µM; with UACC-62 melanoma it was 48.1 µM; with MDA-N, over 100 µM; in the assay with SF-268 CNS, 33.4 µM. For the same compound, the TGI in the assay with A549 NSCLC was 53.5 µM; in the assay on MDA-MB-231 breast it was 69.5 µM; in the assay with OVCAR-4 ovarian, 30.9 µM; with SNB-75 CNS, 64 µM; with OVCAR-5 ovarian it was over 100 µM; in the assay with RPMI-8226 leukemia, over 100 µM. In addition, the TGI was 72.1 µM in the assay with SNB-19 CNS, over 100 µM in the assay with SW-620 colon, 35.3 µM with NCI-H522 lung and 56.4 µM in the assay with EKVX NSCLC.
`NNC(=O)c1ccc(-n2nnc(C(=O)NN)c2C(=O)NN)cc1`: the TGI with OVCAR-8 ovarian, in the assay on SF-295 CNS, in the assay on KM12 colon, in the assay on MDA-N, in the assay on A549 NSCLC and with MDA-MB-231 breast was over 100 µM throughout. Moreover, the TGI in the assay with OVCAR-4 ovarian, in the assay on OVCAR-5 ovarian, with RPMI-8226 leukemia, with SNB-19 CNS and in the assay on EKVX NSCLC was over 100 µM in each case.
Take `CC1(C)CC(=O)c2c(nc3ccc4ccccc4c3c2-c2ccc(NC(=O)CCCC(=O)Nc3ccc(-c4c5c(nc6ccc7ccccc7c46)CC(C)(C)CC5=O)cc3)cc2)C1`: the TGI with OVCAR-8 ovarian, with SF-295 CNS, in the assay with KM12 colon, in the assay on UACC-62 melanoma, with MDA-N and with T-47D breast was over 100 µM in each case. Further, the TGI with SF-268 CNS, with A549 NSCLC, with MDA-MB-231 breast, with SNB-75 CNS, with OVCAR-5 ovarian and with RPMI-8226 leukemia was over 100 µM in each case. Also, the TGI with SF-539 CNS, in the assay on SNB-19 CNS, in the assay with SW-620 colon and in the assay with EKVX NSCLC was over 100 µM in each case.
Consider `COc1ccc(N2C(=O)C3c4[nH]c5ccc(C)cc5c4C4CCC(C)CC4C3C2=O)cc1` (stereo unspecified), for which the TGI in the assay on OVCAR-8 ovarian, in the assay on SF-295 CNS, in the assay on UACC-62 melanoma, in the assay with MDA-N, with SF-268 CNS and in the assay on A549 NSCLC was over 100 µM in each case. Besides, the TGI in the assay with MDA-MB-231 breast, in the assay with OVCAR-5 ovarian, in the assay with RPMI-8226 leukemia, in the assay on SF-539 CNS, with SNB-19 CNS and with SW-620 colon was over 100 µM each time. In addition, the TGI in the assay on NCI-H522 lung and in the assay with EKVX NSCLC was over 100 µM in each case.
On to `CC1(CCC2C=CCC2)CCCNC1=S` (stereo unspecified), for which the TGI in the assay on OVCAR-8 ovarian, in the assay with SF-295 CNS, with KM12 colon, with UACC-62 melanoma, in the assay on MDA-N and with T-47D breast was over 10 µM in each case. In addition, the TGI with SF-268 CNS, with A549 NSCLC, in the assay on MDA-MB-231 breast, in the assay on SNB-75 CNS, with OVCAR-5 ovarian and in the assay with RPMI-8226 leukemia was over 10 µM in each case. In addition, the TGI in the assay with SF-539 CNS, with SNB-19 CNS, in the assay with SW-620 colon and in the assay on EKVX NSCLC was over 10 µM throughout.
On to `COc1ccccc1NC(=O)/C(Cc1nc2ccc([N+](=O)[O-])cc2[nH]c1=O)=N\NC(=O)C[N+](C)(C)C`, for which the TGI is over 100 µM in the assay with OVCAR-8 ovarian; over 100 µM in the assay with SF-295 CNS; over 100 µM in the assay on KM12 colon; over 100 µM in the assay on UACC-62 melanoma; 36 µM in the assay on MDA-N; over 100 µM in the assay on SF-268 CNS. For the same compound, the TGI with A549 NSCLC, with MDA-MB-231 breast, in the assay with OVCAR-4 ovarian, in the assay with SNB-75 CNS, with OVCAR-5 ovarian and with SF-539 CNS was over 100 µM in each case. The TGI in the assay with SNB-19 CNS, with SW-620 colon, in the assay on NCI-H522 lung and with EKVX NSCLC was over 100 µM in each case.
Take `CCOC(=O)c1c(N2CCCC2)nsc1Nc1ccccc1`: the TGI with OVCAR-8 ovarian, in the assay on SF-295 CNS, in the assay with KM12 colon, with MDA-N, in the assay on T-47D breast and with SF-268 CNS was over 100 µM in each case. In addition, the TGI in the assay on A549 NSCLC, with MDA-MB-231 breast, in the assay on OVCAR-4 ovarian, with SNB-75 CNS, with OVCAR-5 ovarian and with RPMI-8226 leukemia was over 100 µM throughout. Also, the TGI with SF-539 CNS, in the assay on SNB-19 CNS, in the assay with SW-620 colon and in the assay with EKVX NSCLC was over 100 µM each time.
Consider `COc1cc2c(c(OC)c1OC)C(=O)[C@H](O)[C@H]2NC(N)=O`, for which the TGI with OVCAR-8 ovarian is over 100 µM; with SF-295 CNS it was over 100 µM; in the assay with KM12 colon it was over 100 µM; in the assay on UACC-62 melanoma, 48.5 µM; in the assay on MDA-N, over 100 µM; with SF-268 CNS, over 100 µM. Moreover, the TGI with A549 NSCLC, with MDA-MB-231 breast, in the assay with SNB-75 CNS, in the assay with OVCAR-5 ovarian, in the assay with RPMI-8226 leukemia and in the assay with SF-539 CNS was over 100 µM each time. The TGI in the assay on SNB-19 CNS, in the assay with SW-620 colon, in the assay with NCI-H522 lung and with EKVX NSCLC was over 100 µM in each case.
